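Grown in 96-well plates, cells were treated for 48 hours with each compound at five concentrations. Insufficient inhibition: endpoint recorded as highest concentration tested. GI50 is the concentration that inhibits growth by half. The concentration for full growth arrest is given as TGI.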

The results in this text go back to PubChem BioAssay (NCI).

Holding throughout (test): DTP human tumour cell line panel, 48 h
The subject of test [1] is NCI-H23 lung.
Test [2] concerns NCI-H460 lung.
Test [3] deals with M14 melanoma.
Test [4] concerns HCT-15 colon.
Test [5] relates to A498 renal.
The test system of test [6] is 786-0 renal.
Test [7] deals with MDA-MB-231 breast.
Test [8] has as its system COLO 205 colon.
Test [9] concerns SK-OV-3 ovarian.
The subject of test [10] is SR leukemia.

For the molecule `CCOc1ccc2c(-c3ccnc(Nc4cc(OC)cc(C(F)(F)F)c4)n3)cnn2n1`, the GI50 in test [1] was over 21.9 µM; in test [2] it was over 15.7 µM; in test [3], over 25 µM; in test [4], over 23.3 µM; in test [5], over 25 µM; in test [6] it was over 13.3 µM. Also, the GI50 was 9.6 µM in test [7], over 25 µM in test [8], over 25 µM in test [9] and 1.32 µM in test [10]. For the same molecule, the TGI in test [1], in test [2], in [3], in [4], in test [5] and in test [6] was over 25 µM throughout. Moreover, the TGI is over 22.5 µM in test [7], over 25 µM in test [8], over 25 µM in test [9] and over 25 µM in [10].
Regarding `Cc1ccc(/C=C(\C#N)c2cc3ccccc3n2C)cc1`, the GI50 in test [1] was 0.541 µM; in [2], 0.361 µM; in [3] it was 0.268 µM; in test [4] it was 0.303 µM; in [5] it was 0.217 µM; in test [6], 0.709 µM. Besides, the GI50 in [7] is 0.671 µM; in test [8], 0.41 µM; in [9], over 100 µM; in test [10], 0.264 µM. The TGI in test [1] was over 100 µM; in test [2] it was over 100 µM; in test [3], over 100 µM; in test [4] it was over 100 µM; in test [5], 0.808 µM; in test [6], over 100 µM. The TGI is over 100 µM in [7], over 43.5 µM in test [8], over 100 µM in test [9] and over 100 µM in [10].
